The record followed here is ChEMBL document CHEMBL5523667, “Blood-stage antimalarial activity, favourable metabolic stability and in vivo toxicity of novel piperazine linked 7-chloroquinoline-triazole conjugates” (Eur J Med Chem, 2024).

In data set [1] the test system is Plasmodium falciparum. The data set can be described thus: Antimalarial activity against chloroquine-sensitive Plasmodium falciparum NF54 assessed as inhibition of parasite growth by lactate dehydrogenase assay. Type of data set: functional, organism-based.
Data set [2] is described as follows: Cytotoxicity against CHO cells assessed as reduction in cell viability by MTT assay. The class given is toxicity, cell-based. The conditions noted are these: Chinese hamster (Cricetulus griseus).
Data set [3] is described as follows: Selectivity index, ratio of IC50 for cytotoxicity against CHO cells to IC50 for antimalarial activity against chloroquine-sensitive Plasmodium falciparum NF54. The settings on record: hamster, CHO cells versus Plasmodium falciparum NF54; read-out: Ratio IC50. Type of data set: toxicity, cell-based.
For data set [4], the system named is Plasmodium falciparum. The data set can be described thus: Antimalarial activity against ring stage chloroquine-resistant Plasmodium falciparum RKL9 assessed as inhibition of parasite growth by SYBR green I dye based assay. Type of data set: functional, organism-based.
Data set [5] has as its target T1, Falcipain-3 (Plasmodium falciparum 3D7, UniProt Q8IIL0).
T1 sequence (Q8IIL0 whole entry): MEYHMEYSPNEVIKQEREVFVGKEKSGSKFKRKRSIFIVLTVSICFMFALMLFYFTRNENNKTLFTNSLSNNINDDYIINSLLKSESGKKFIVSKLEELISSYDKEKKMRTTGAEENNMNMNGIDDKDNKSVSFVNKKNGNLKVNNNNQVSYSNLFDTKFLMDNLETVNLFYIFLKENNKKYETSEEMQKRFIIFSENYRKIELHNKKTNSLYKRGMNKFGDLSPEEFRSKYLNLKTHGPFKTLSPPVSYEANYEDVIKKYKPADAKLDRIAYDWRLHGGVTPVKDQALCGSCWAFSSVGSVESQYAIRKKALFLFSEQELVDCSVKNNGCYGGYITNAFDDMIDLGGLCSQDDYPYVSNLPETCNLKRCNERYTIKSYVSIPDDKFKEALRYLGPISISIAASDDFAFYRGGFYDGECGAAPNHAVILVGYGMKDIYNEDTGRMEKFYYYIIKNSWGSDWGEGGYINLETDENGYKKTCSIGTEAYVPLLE
As to the kind of experiment: Binding affinity to N-terminal 6His-tagged recombinant Plasmodium falciparum FP3 expressed in Escherichia coli M15 assessed as dissociation constant incubated for 15 mins in presence of lysine reactive dye by microscale thermophoretic analysis.

Data set [6] has as its target T2, Falcipain 2 (Plasmodium falciparum, UniProt Q9N6S8).
T2 sequence (Q9N6S8 whole entry): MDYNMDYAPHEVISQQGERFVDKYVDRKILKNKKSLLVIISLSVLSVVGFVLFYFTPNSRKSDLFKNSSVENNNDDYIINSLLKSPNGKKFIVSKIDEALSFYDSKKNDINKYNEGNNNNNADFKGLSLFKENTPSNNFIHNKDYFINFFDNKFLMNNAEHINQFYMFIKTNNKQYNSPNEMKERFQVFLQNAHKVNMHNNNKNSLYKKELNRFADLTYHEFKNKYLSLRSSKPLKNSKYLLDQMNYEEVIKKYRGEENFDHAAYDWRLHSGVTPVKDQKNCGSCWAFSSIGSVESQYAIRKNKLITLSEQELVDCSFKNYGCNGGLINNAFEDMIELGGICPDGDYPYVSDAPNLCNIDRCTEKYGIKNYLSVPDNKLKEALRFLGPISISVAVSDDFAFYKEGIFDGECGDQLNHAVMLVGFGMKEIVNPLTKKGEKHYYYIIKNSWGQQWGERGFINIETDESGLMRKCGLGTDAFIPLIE
As to the kind of experiment: Binding affinity to N-terminal 6His-tagged recombinant Plasmodium falciparum FP2 expressed in Escherichia coli M15 assessed as dissociation constant by surface plasmon resonance analysis.

The target of data set [7] is T1, Falcipain-3. As to the kind of experiment: Binding affinity to N-terminal 6His-tagged recombinant Plasmodium falciparum FP3 expressed in Escherichia coli M15 assessed as dissociation constant by surface plasmon resonance analysis.
In data set [8] the target is T3, Falcipain 2 (Plasmodium falciparum) (UniProt Q9N6S8).
T3 sequence (whole entry): T2 sequence (Q9N6S8 whole entry)
As to the kind of experiment: Binding affinity to N-terminal 6His-tagged recombinant Plasmodium falciparum FP2 expressed in Escherichia coli M15 assessed as dissociation rate constant (Koff) by surface plasmon resonance analysis.

In data set [9] the target is T3, Falcipain 2 (Plasmodium falciparum). The data set can be described thus: Inhibition of N-terminal 6His-tagged recombinant Plasmodium falciparum FP2 expressed in Escherichia coli M15 using Z-Phe-Arg-AMC as substrate at 5 uM measured after 30 mins by microplate reader analysis relative to control.
Data set [10] addresses T4, Falcipain-3 (Plasmodium falciparum 3D7) (UniProt Q8IIL0).
T4 sequence (whole entry): T1 sequence (Q8IIL0 whole entry)
The data set can be described thus: Inhibition of N-terminal 6His-tagged recombinant Plasmodium falciparum FP3 expressed in Escherichia coli M15 using Z-Phe-Arg-AMC as substrate at 5 uM measured after 30 mins by microplate reader analysis relative to control.

The subject of data set [11] is Plasmodium falciparum. As to the kind of experiment: Antimalarial activity against synchronized-ring stage chloroquine-sensitive Plasmodium falciparum 3D7 assessed as growth progression defect from ring to schizont stage measured upto 60 hrs post-treatment by Giemsa staining based light microscopic analysis. The class given is functional, organism-based.
For data set [12], the system named is Plasmodium falciparum. The data set can be described thus: Antimalarial activity against synchronized-ring stage chloroquine-sensitive Plasmodium falciparum 3D7 assessed as inhibition of parasite growth by measuring pyknotic appearance measured upto 60 hrs by Giemsa staining based light microscopic analysis. Type of data set: functional, organism-based.
Data set [13] relates to Plasmodium berghei. As to the kind of experiment: Antimalarial activity against Plasmodium berghei ANKA infected in BALB/c mouse assessed as clearance of gametocytes at 50 to 100 mg/kg, ip p preadministered with phenylhydrazine for 3 days followed by compound administration and measured after 5 days by Giemsa staining based light microscopic analysis relative to control. The conditions noted are these: dose 50-100 mg/kg, time 5.0 day. Type of data set: functional, organism-based.

Data set [14] in a line: Drug metabolism in human liver S9 fraction assessed as mono-hydroxylation mediated metabolite formation at 2 uM measured for 90 mins by LC-MS/MS analysis. Type of data set: ADME, subcellular. The settings on record: s9, 1.5 h.
Data set [15] can be described thus: Stability of the compound in tris buffer at pH 7.4 at 1 uM measured after 120 mins by LC-MS/MS analysis. Type of data set: physicochemical. The settings on record: pH 7.4, 2 h.
The nature of data set [16]: Toxicity in mouse assessed as total distance travelled at 200 mg/kg measured over 5 mins by open field arena test (reference value: 12.45 +/- 1.48 meter). The class given is organism-based. The conditions noted are these: in vivo.
Data set [17] in a line: Toxicity in mouse assessed as effect on exploratory activity at 100 to 200 mg/kg measured over 5 mins by open field arena test. The class given is organism-based. The conditions noted are these: in vivo, dose 100-200 mg/kg.
A short description of data set [18]: Toxicity in mouse assessed as frequency of rearing activity at 100 mg/kg measured over 5 mins by open field arena test (reference value: 18.14 +/- 2.6 sec). The settings on record: in vivo. Type of data set: organism-based.
Data set [19] can be described thus: Toxicity in mouse assessed as frequency of rearing activity at 200 mg/kg measured over 5 mins by open field arena test (reference value: 18.14 +/- 2.6 sec). The class given is organism-based. The settings on record: in vivo.
Data set [20] is described as follows: Toxicity in mouse assessed as latency time to the central area at 100 mg/kg by open field test (reference value: 106.48 +/- 43.19 sec). Type of data set: organism-based. The conditions noted are these: in vivo, 43 s.
Data set [21] in a line: Toxicity in mouse assessed as grooming time at 100 mg/kg by open field test (reference value: 10.91 +/- 2.01 sec). The settings on record: in vivo, 2 s. The class given is organism-based.
The nature of data set [22]: Toxicity in mouse assessed as grooming time at 200 mg/kg by open field test (reference value: 10.91 +/- 2.01 sec). The class given is organism-based. The settings on record: in vivo, 2 s.
Data set [23] can be described thus: Toxicity in mouse assessed as latency to fall off the rotating rod by measuring neuromuscular coordination index at 100 mg/kg by rotarod apparatus (reference value: 12.45 +/- 1.48 ). Type of data set: organism-based. The conditions noted are these: in vivo.
Data set [24] can be described thus: Toxicity in mouse assessed as cell death in spleen at 100 to 200 mg/kg measured after 7 days by hematoxylin and eosin staining based analysis. The class given is organism-based. The settings on record: in vivo, 168 h, dose 100-200 mg/kg, time 7 day.

Active and inactive are the calls of the source. The rule behind the calls is not given here.

In the case of `O=C(Cn1cc(CN2CCN(c3ccnc4cc(Cl)ccc34)CC2)nn1)Nc1cccc([N+](=O)[O-])c1`, the results for the IC50 in [1], in data set [2] and in data set [4] were 0.92 µM, 148 µM and 1.8 µM, respectively. The selectivity ratio in [3] was 160. For the same compound, the values for the Kd in data set [5], in data set [6] and in [7] were 54.4 µM, 14 µM and 74 µM, respectively. The K in data set [8] stood at 0.097 s⁻¹. Further, the inhibition in data set [9] and in data set [10] was 27.3% in each case. The outcome in data set [11], in [12] and in data set [13] was Active. Further, the Drug metabolism entry in data set [14] is “Metabolite_Detected”. The Stability entry in data set [15] was “Stable”. The Activity in [16] is on record as 10.75 m; in [17] it was “Non-Toxic”; in [18] it was 14.17 s; in data set [19] it was 14.32 s; in data set [24] it was “Non-Toxic”. In addition, the Time in data set [20] amounted to 56.23 s; in [21], 12.04 s; in [22], 14.31 s. In [23], the Activity_index stood at 11.53.
